Source: patent US20170232083A1, “METHODS OF DIAGNOSIS AND TREATMENT OF CELIAC DISEASE IN CHILDREN” (priority 2014, published 2017)

System: PBMC (polyclonal gluten-specific T cells) of paediatric and adult CD patients
Experiment: IFN-γ ELISpot of PBMC after 3 day oral wheat challenge (SFU, % of maximal peptide response, dominance scores, EC50; Examples 5-6)
Type: cell-based, human
Conditions: for Cross-reactive T cell response: following wheat challenge; for IFN-γ ELISpot response: after oral wheat challenge
[1] = subject I (3-5yrs/6-10yrs part)
[2] = subject J (3-5yrs/6-10yrs part)
[3] = subject K (3-5yrs/6-10yrs part)
[4] = subject V (3-5yrs/6-10yrs part)
[5] = subject W (3-5yrs/6-10yrs part)
[6] = subject Y (3-5yrs/6-10yrs part)
[7] = subject five (3-5yrs/6-10yrs part)
[8] = subject seven (3-5yrs/6-10yrs part)
[9] = subject six (3-5yrs/6-10yrs part)
[10] = subject ten (3-5yrs/6-10yrs part)
[11] = subject two (3-5yrs/6-10yrs part)

QPFPQPEQPIPQQ
Cross-reactive T cell response (subject A, 11-17yrs): 3 SFU
Significant response as a percentage of maximal peptide SFU (subject D, 11-17yrs): + (>70% = +)
Cross-reactive T cell response (subject D, 11-17yrs): 29 SFU
Significant response as a percentage of maximal peptide SFU (subject E, 11-17yrs): ′′ (21-40% = ′′)
Cross-reactive T cell response (subject E, 11-17yrs): 87 SFU
Significant response as a percentage of maximal peptide SFU (subject F, 11-17yrs): ′′ (21-40% = ′′)
Cross-reactive T cell response (subject F, 11-17yrs): 62 SFU
Cross-reactive T cell response (subject G, 11-17yrs): 4 SFU
Cross-reactive T cell response (subject H): 1 SFU
Cross-reactive T cell response [1]: 3 SFU
Significant response as a percentage of maximal peptide SFU (subject J): ′′′ (41-70% = ′′′)
Cross-reactive T cell response [2]: 132 SFU
Significant response as a percentage of maximal peptide SFU (subject K): ′ (11-20% = ′)
Cross-reactive T cell response [3]: 11 SFU
Significant response as a percentage of maximal peptide SFU (subject P, 11-17yrs): + (>70% = +)
Cross-reactive T cell response (subject P, 11-17yrs): 48 SFU
Significant response as a percentage of maximal peptide SFU (subject Q, 11-17yrs): ′′′ (41-70% = ′′′)
Cross-reactive T cell response (subject Q, 11-17yrs): 64 SFU
Significant response as a percentage of maximal peptide SFU (subject T, 11-17yrs): + (>70% = +)
Cross-reactive T cell response (subject T, 11-17yrs): 87 SFU
Significant response as a percentage of maximal peptide SFU (subject U, 11-17yrs): ′′′ (41-70% = ′′′)
Cross-reactive T cell response (subject U, 11-17yrs): 41 SFU
Significant response as a percentage of maximal peptide SFU (subject V): ′′′ (41-70% = ′′′)
Cross-reactive T cell response [4]: 17 SFU
Cross-reactive T cell response [5]: 5 SFU
Cross-reactive T cell response [6]: 7 SFU
Significant response as a percentage of maximal peptide SFU (subject five): + (>70% = +)
Cross-reactive T cell response [7]: 44 SFU
Cross-reactive T cell response (subject nine, 11-17yrs): 1 SFU
Cross-reactive T cell response [8]: 7 SFU
Significant response as a percentage of maximal peptide SFU (subject six): + (>70% = +)
Cross-reactive T cell response [9]: 12 SFU
Cross-reactive T cell response [10]: 4 SFU
Significant response as a percentage of maximal peptide SFU (subject two): ′′ (21-40% = ′′)
Cross-reactive T cell response [11]: 24 SFU

QPFPQPEQPFPWQP
IFN-γ ELISpot response (patient A, 11-17 yrs, cut-off 10 SFU): 3.5 SFU
Significant response as percentage of maximal peptide SFU (patient D, max peptide 30.5 SFU): + (>70% = +)
IFN-γ ELISpot response (patient E, H, 11-17 yrs, cut-off 10 SFU): 44 SFU
Significant response as percentage of maximal peptide SFU (patient E, max peptide 224 SFU): ′ (11-20% = ′)
IFN-γ ELISpot response (patient F, 11-17 yrs, cut-off 10 SFU): 84.5 SFU
Significant response as percentage of maximal peptide SFU (patient F, max peptide 178 SFU): ′′′ (41-70% = ′′′)
IFN-γ ELISpot response (patient G, 11-17 yrs, cut-off 10 SFU): 8 SFU
IFN-γ ELISpot response (patient H (HLA-DQ2.5 homozygote), 3-5yrs, cut-off 10 SFU): 27.5 SFU
IFN-γ ELISpot response (patient H, 11-17 yrs, cut-off 10 SFU): 8.5 SFU
IFN-γ ELISpot response (patient ID not given, 11-17 yrs, cut-off 10 SFU): 67.5 SFU
Significant response as percentage of maximal peptide SFU (patient ID not given, max peptide 95 SFU): + (>70% = +)
Significant response as percentage of maximal peptide SFU (patient II, max peptide 15 SFU): + (>70% = +)
Significant response as percentage of maximal peptide SFU (patient J, max peptide 196 SFU): ′′′ (41-70% = ′′′)
Significant response as percentage of maximal peptide SFU (patient K, max peptide 53 SFU): ′′ (21-40% = ′′)
Significant response as percentage of maximal peptide SFU (patient M, max peptide 48 SFU): ′′′ (41-70% = ′′′)
IFN-γ ELISpot response (patient N, 3-5yrs, cut-off 10 SFU): 7 SFU
IFN-γ ELISpot response (patient P, 11-17 yrs, cut-off 21.6 SFU): 20 SFU
IFN-γ ELISpot response (patient Q, 11-17 yrs, cut-off 10 SFU): 63 SFU
IFN-γ ELISpot response (patient U, H, 11-17 yrs, cut-off 10 SFU): 17 SFU
Significant response as percentage of maximal peptide SFU (patient U, max peptide 81 SFU): ′′ (21-40% = ′′)
IFN-γ ELISpot response (patient V, 6-10 yrs, cut-off 10 SFU): 25 SFU
Significant response as percentage of maximal peptide SFU (patient V, max peptide 35 SFU): + (>70% = +)
IFN-γ ELISpot response (patient Y, 6-10 yrs, cut-off 10 SFU): 10 SFU
Significant response as percentage of maximal peptide SFU (patient Y, max peptide 16 SFU): ′′′ (41-70% = ′′′)
Significant response as percentage of maximal peptide SFU (patient Z, max peptide 13 SFU): + (>70% = +)
IFN-γ ELISpot response (patient eleven, 6-10 yrs, cut-off 10 SFU): 20.5 SFU
Significant response as percentage of maximal peptide SFU (patient eleven, max peptide 57 SFU): ′′ (21-40% = ′′)
Significant response as percentage of maximal peptide SFU (patient five, max peptide 48 SFU): + (>70% = +)
IFN-γ ELISpot response (patient four, 3-5yrs, cut-off 10 SFU): 28.5 SFU
Significant response as percentage of maximal peptide SFU (patient four, max peptide 44 SFU): ′′′ (41-70% = ′′′)
IFN-γ ELISpot response (patient seven, 6-10 yrs, cut-off 10.5 SFU): 11 SFU
Significant response as percentage of maximal peptide SFU (patient seven, max peptide 27 SFU): ′′′ (41-70% = ′′′)
IFN-γ ELISpot response (patient six, 3-5yrs, cut-off 10 SFU): 10 SFU
Significant response as percentage of maximal peptide SFU (patient six, max peptide 13 SFU): + (>70% = +)
IFN-γ ELISpot response (patient ten, 3-5yrs, cut-off 10 SFU): 14.5 SFU
Significant response as percentage of maximal peptide SFU (patient ten, max peptide 14.5 SFU): + (>70% = +)
IFN-γ ELISpot response (patient three, 6-10 yrs, cut-off 10.5 SFU): 95 SFU
IFN-γ ELISpot response (patient twelve, 11-17 yrs, cut-off 10 SFU): 30.5 SFU
IFN-γ ELISpot response (patient two, 3-5yrs, cut-off 10 SFU): 52.5 SFU
Significant response as percentage of maximal peptide SFU (patient two, max peptide 60 SFU): + (>70% = +)
Cross-reactive T cell response (subject A, 11-17yrs): 15 SFU
Significant response as a percentage of maximal peptide SFU (subject D, 11-17yrs): + (>70% = +)
Cross-reactive T cell response (subject D, 11-17yrs): 30.5 SFU
Significant response as a percentage of maximal peptide SFU (subject E, 11-17yrs): ′ (11-20% = ′)
Cross-reactive T cell response (subject E, 11-17yrs): 44 SFU
Significant response as a percentage of maximal peptide SFU (subject F, 11-17yrs): ′′′ (41-70% = ′′′)
Cross-reactive T cell response (subject F, 11-17yrs): 845 SFU
Cross-reactive T cell response (subject G, 11-17yrs): 8 SFU
Cross-reactive T cell response (subject H): 8.5 SFU
Cross-reactive T cell response [1]: 5.5 SFU
Cross-reactive T cell response [2]: 95- SFU
Significant response as a percentage of maximal peptide SFU (subject K): ′′ (21-40% = ′′)
Cross-reactive T cell response [3]: 18.5 SFU
Cross-reactive T cell response (subject P, 11-17yrs): 20 SFU
Significant response as a percentage of maximal peptide SFU (subject Q, 11-17yrs): ′′′ (41-70% = ′′′)
Cross-reactive T cell response (subject Q, 11-17yrs): 63 SFU
Cross-reactive T cell response (subject T, 11-17yrs): 67.5 SFU
Significant response as a percentage of maximal peptide SFU (subject U, 11-17yrs): ′′ (21-40% = ′′)
Cross-reactive T cell response (subject U, 11-17yrs): 17 SFU
Significant response as a percentage of maximal peptide SFU (subject V): + (>70% = +)
Cross-reactive T cell response [4]: 25 SFU
Cross-reactive T cell response [5]: 9 SFU
Cross-reactive T cell response [6]: 10- SFU
Significant response as a percentage of maximal peptide SFU (subject five): + (>70% = +)
Cross-reactive T cell response [7]: 40.5 SFU
Cross-reactive T cell response (subject nine, 11-17yrs): 15 SFU
Significant response as a percentage of maximal peptide SFU (subject seven): ′′ (21-40% = ′′)
Cross-reactive T cell response [8]: 11 SFU
Significant response as a percentage of maximal peptide SFU (subject six): + (>70% = +)
Cross-reactive T cell response [9]: 10 SFU
Significant response as a percentage of maximal peptide SFU (subject ten): + (>70% = +)
Cross-reactive T cell response [10]: 14.5 SFU
Significant response as a percentage of maximal peptide SFU (subject two): + (>70% = +)
Cross-reactive T cell response [11]: 52.5 SFU

NPLQPEQPFPLQPQPP
Cross-reactive T cell response (subject A, 11-17yrs): 3 SFU
Significant response as a percentage of maximal peptide SFU (subject D, 11-17yrs): ′′ (21-40% = ′′)
Cross-reactive T cell response (subject D, 11-17yrs): 12 SFU
Significant response as a percentage of maximal peptide SFU (subject E, 11-17yrs): (6-10% - ^)
Cross-reactive T cell response (subject E, 11-17yrs): 21 SFU
Significant response as a percentage of maximal peptide SFU (subject F, 11-17yrs): ′ (11-20% = ′)
Cross-reactive T cell response (subject F, 11-17yrs): 25 SFU
Cross-reactive T cell response (subject G, 11-17yrs): 1 SFU
Significant response as a percentage of maximal peptide SFU (subject H, 11-17yrs): + (>70% = +)
Cross-reactive T cell response (subject H): 14 SFU
Cross-reactive T cell response [1]: 1 SFU
Significant response as a percentage of maximal peptide SFU (subject J): ′ (11-20% = ′)
Cross-reactive T cell response [2]: 38 SFU
Significant response as a percentage of maximal peptide SFU (subject K): ′′ (21-40% = ′′)
Cross-reactive T cell response [3]: 19 SFU
Cross-reactive T cell response (subject P, 11-17yrs): 6 SFU
Significant response as a percentage of maximal peptide SFU (subject Q, 11-17yrs): ′′ (21-40% = ′′)
Cross-reactive T cell response (subject Q, 11-17yrs): 23 SFU
Significant response as a percentage of maximal peptide SFU (subject T, 11-17yrs): ′′ (21-40% = ′′)
Cross-reactive T cell response (subject T, 11-17yrs): 33 SFU
Cross-reactive T cell response (subject U, 11-17yrs): 9 SFU
Cross-reactive T cell response [4]: 6 SFU
Cross-reactive T cell response [5]: 7 SFU
Cross-reactive T cell response [6]: 3 SFU
Significant response as a percentage of maximal peptide SFU (subject five): ′′ (21-40% = ′′)
Cross-reactive T cell response [7]: 14 SFU
Cross-reactive T cell response (subject nine, 11-17yrs): 1 SFU
Cross-reactive T cell response [8]: 4 SFU
Significant response as a percentage of maximal peptide SFU (subject six): + (>70% = +)
Cross-reactive T cell response [9]: 13 SFU
Significant response as a percentage of maximal peptide SFU (subject ten): + (>70% = +)
Cross-reactive T cell response [10]: 11 SFU
Significant response as a percentage of maximal peptide SFU (subject two): ′ (11-20% = ′)
Cross-reactive T cell response [11]: 10 SFU
